Measurements reported in publication PMC8279415, “Targeting Acute Myelogenous Leukemia Using Potent Human Dihydroorotate Dehydrogenase Inhibitors Based on the 2-Hydroxypyrazolo[1,5-a]pyridine Scaffold: SAR of the Biphenyl Moiety” (Journal of Medicinal Chemistry, 2021).
Converted amounts (≈) assume the structure as drawn. “Also recorded” adds a separate entry of the source. Where two headings read alike, the source gives them in different places.

Tests used:
recombinant hDHODH = target: T1, recombinant hDHODH (Homo sapiens, UniProt Q02127); experiment: hDHODH inhibition assay (DCIP reduction); format: biochemical
T1 construct: made in house; host or cells: E. coli BL21DE3 PyrD
T1 sequence (Q02127 whole entry): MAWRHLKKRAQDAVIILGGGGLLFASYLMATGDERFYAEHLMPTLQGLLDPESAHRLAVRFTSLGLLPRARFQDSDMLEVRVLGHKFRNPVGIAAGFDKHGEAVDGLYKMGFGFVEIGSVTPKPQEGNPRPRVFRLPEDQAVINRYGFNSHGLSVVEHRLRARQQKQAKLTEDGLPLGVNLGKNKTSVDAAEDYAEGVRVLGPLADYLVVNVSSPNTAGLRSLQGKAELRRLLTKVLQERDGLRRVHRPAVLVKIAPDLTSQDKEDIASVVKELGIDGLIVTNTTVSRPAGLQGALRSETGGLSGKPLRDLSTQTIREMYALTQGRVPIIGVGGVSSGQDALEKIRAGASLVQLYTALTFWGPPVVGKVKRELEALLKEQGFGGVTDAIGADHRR
Experimental: BL21DE3 PyrD E. coli cells were transformed using the plasmid construct pFN2A–hDHODH (kindly given by Department of Drug Science and Technology, University of Turin, Turin, Italy). The vector produces hDHODH as an N-terminal GST-fusion protein. Cells were grown at 37 °C in LB medium supplemented with 0.1 mM flavin mononucleotide (Cayman Chemical). […] Triton X-100 was added to the lysate, to a final concentration of 1%, before centrifugation at 14 000g for 40 min at 4 °C. The clarified supernatant was incubated with DNase I for 30 min at room temperature, supplemented with 2 mM dithiothreitol (DTT), and filtered through a 0.45 μm syringe filter as previously described by Sainas et al.[18] The GST-fused enzyme was purified from the bacterial lysate using affinity chromatography on immobilized glutathione-Sepharose columns (GE- […]). The GST tag was not cleaved for further analysis. All the reagents used in the protein expression and purification were supplied by Merck/Sigma-Aldrich if not otherwise specified.
The enzymatic inhibition assay was optimized for being performed on a 96-well plate and to achieve higher throughput. For each well of the plate a total volume of 200 μL was used: 5 μL of purified GST-hDHODH; 60 μL of 2,6-dichloroindophenol (DCIP) 50 μM; 20 μL of coenzyme Q10 enzyme 100 μM; 20 μL of dihydroorotate (DHO) 500 μM; Tris-HCl, pH 8, up to a final volume of 200 μL. Inhibitory activity was assessed by monitoring the reduction of DCIP, which is associated with the oxidation of dihydroorotate as catalyzed by the DHODH enzyme. The enzyme was preincubated for 5 min at 37 °C in Tris-HCl, pH 8, with coenzyme Q10, with DCIP (50 μM), and with the compounds to be tested used at different concentrations (final DMSO concentration 0.1% v/v). The reaction was initiated by the addition of DHO (500 μM), and the absorbance kinetic reduction was monitored at λ = 650 nm using a multiplate reader (Tecan, M1000Pro). In order to assess the minimum and maximum absorbance values of the enzymatic reaction, a Min control value was obtained by measuring the absorbance without DHO. Similarly, a Max value was obtained by measuring the absorbance with DHO but no inhibitor. A blank reduction calculation was also performed by measuring the absorbance values using 180 μL of Tris-HCl and 20 μL of coenzyme Q10. The instrument was set to read the absorbance values every 10 s for a total read time of 10 min at 37 °C. […] Values are the mean ± SE of three independent experiments.

[1] = Solubility assay at pH 7.4 in PBS; format: physicochemical; settings: for solubility in PBS / solubility at 24 h: pH 7.4, 25 °C, 24 h, LOD 6 μM; for solubility at 24 h: phosphate buffered saline
Experimental: These suspensions were filtered through a PTFE 0.45 μm filter (VWR), and the solutions were chromatographically analyzed using a PerkinElmer ultrahigh performance liquid chromatography (UHPLC) instrument, equipped with a reverse-phase (RP) C18 Phenomenex column (2.1 mm × 100 mm, 1.7 μm particle size). […] The flow rate was 0.5 mL/min. Standard injection volumes were either 2 or 4 μL for poorly soluble compounds. The detection system was a PerkinElmer diode array detector. The wavelengths that were monitored for each compound were defined according to the compound’s own absorption spectrum. Solubility, expressed as μM concentration of the saturated solution, was calculated via interpolation with external calibration curves that were obtained with solutions of each compound in acetonitrile.

[2] = LogD7.4, shake-flask n-octanol/PBS; settings: for logD at 20 min / logD: pH 7.4; for logD: n-octanol/PBS; for LogD^7.4 ± SD: n-octanol/PBS pH 7.4, shake-flask; for Log D7.4 ± SD (supplement CSV): supplementary CSV
Experimental: The partition coefficients between n-octanol and PBS at pH 7.4 (LogD^7.4) were obtained using the shake-flask technique at room temperature. In the shake-flask experiments, 50 mM phosphate buffered saline, pH 7.4, was used as the aqueous phase. The organic (n-octanol) and aqueous phases were mutually saturated by shaking for 4 h. The compounds were solubilized in the buffered aqueous phase at the highest concentration compatible with solubility, and appropriate amounts of n-octanol were added. The two phases were shaken for about 20 min, by which time the partitioning equilibrium of solutes had been reached, and then centrifuged (10 000 rpm, 10 min). The concentration of the solutes was measured in the aqueous phase using a UV spectrophotometer (Varian Cary 50BIO); absorbance values (recorded for each compound at the wavelength of maximum absorption) were interpolated in calibration curves obtained using standard solutions of the compounds (r^2 > 0.99). Each log D value is an average of at least six measurements.

THP1 cells [3] = experiment: Fixed-concentration screening of differentiation (CD14) and apoptosis (annexin V) in THP1, with or without uridine; format: cell-based, human
Experimental: DMSO (dimethyl sulfoxide) acts as the negative control group as it was used to solubilize hDHODH inhibitors. ∗, ∗∗, ∗∗∗ represent the statistical significance for apoptosis (respectively p < 0.05, < 0.01, and <0.001). #, ##, and ### represent the statistical significance for differentiation (respectively p < 0.05, <0.01, and <0.001). The statistical significance is calculated by comparing the compounds to DMSO.
The statistical significance is calculated by comparing the compounds to DMSO.

[4] = In vitro metabolic profile in rat-liver microsomes; format: in vitro ADME; settings: for metabolites identified in sample C: active rat-liver microsomes and regenerating system, HPLC-HRMS
Experimental: SyGMa (systematic generation of potential metabolites) software, a tool that lists predicted metabolites with associated empirical probability scores, was used to identify putative metabolites, which were then investigated by analyzing samples with liquid chromatography coupled to high-resolution mass spectrometry (HPLC–HRMS). […] The full-scan MS data acquired for all of the samples were analyzed to find the m/z values of the predicted molecular structures. In order to exclude interfering signals, the results obtained were compared to blank samples and common background peaks were not considered.
Rat-liver microsomes (Sprague-Dawley, male, Sigma-Aldrich; 20 mg/mL protein concentration) were incubated with the candidate compound solution (5 μM final concentration, with 1% DMSO) and Tris buffer (0.1 M, pH = 7.4). The regenerating system, which slowly generated coenzyme units over the incubation time, leading to a better reproduction of in vivo behavior, was composed of MgCl2 (3.3 mM), NADP^+ (1.3 mM), Glu6P (3.5 mM), and Glu6P dehydrogenase (0.5 U/mL).
The incubation time started with the addition of the microsomes suspension (0.5 mg/mL).
Metabolic reactions were stopped by adding 100 μL of cooled acetonitrile to the 100 μL sample of the incubation mixture. Samples were centrifuged to provoke protein precipitation, and the supernatants were immediately stocked at −80 °C, until analysis, to prevent the potential degradation of unstable products.
The products of in vitro metabolism were identified using a high-resolution mass spectrometer (Q-Exactive Orbitrap, Thermo Scientific) coupled to an HPLC instrument (1200 system Agilent). All analytes were separated on an Ascentis C18 column (150 mm × 2.1 mm, 5 μm particle size) maintained at 35 °C. The elution mixture was composed of solvent A (0.1% formic acid in water for positive ionization mode and 0.05% acetic acid for negative ionization mode) and solvent B (acetonitrile). […] MS2-DIA scans were acquired at R = 17 500 and with variable collision energies ranging from 30 to 45, depending on the m/z of the parent ion.

THP1 cells [5] = experiment: Annexin V apoptosis assay in THP1; settings: EC50 ratio vs brequinar
U937 cells [6] = experiment: Annexin V apoptosis assay in U937; settings: EC50 ratio vs brequinar
Jurkat cells = experiment: CFSE-based cytotoxic activity assay; settings: concentration inducing cytotoxicity ≥30%, 3 days
U937 cells [7] = experiment: Differentiation assay (CD11b expression) in U937; settings: EC50 ratio vs brequinar
[8] = mean ± SE of three independent experiments, read-out: hDHODH, IC50 ± SE
[9] = supplementary CSV, values differ from Table 2, read-out: hDHODH IC50 ± SE (supplement CSV)

| SMILES | IC50 (recombinant hDHODH; [8]) | IC50 (recombinant hDHODH; [9]) | solubility in PBS [1] | solubility at 24 h [1] | logD [2] | further results |
| --- | --- | --- | --- | --- | --- | --- |
| O=C(Nc1c(F)c(F)c(-c2cccs2)c(F)c1F)c1c(O)nn2ccccc12 [Compound 7, 2-Hydroxy-N-(2,3,5,6-tetrafluoro-4-(thiophen-2-yl)phenyl)pyrazolo[1,5-a]pyridine-3-carboxamide] | 1.35 ± 0.45 nM | 1.37 ± 0.1 nM |  |  |  |  |
| O=C(Nc1c(F)c(F)c(-c2ccccc2)c(F)c1F)c1c(O)nn2c1CCCC2 [Compound 5, 2-Hydroxy-N-(2,3,5,6-tetrafluoro-[1,1′-biphenyl]-4-yl)-4,5,6,7-tetrahydropyrazolo[1,5-a]pyridine-3-carboxamide] | 5.8 ± 0.4 nM |  | <LOD |  |  | logD at 20 min [2]: 2.36 ± 0.02 |
| Cc1cccc2c(C(=O)Nc3c(F)c(F)c(-c4ccccc4)c(F)c3F)c(O)nn12 [Compound 2] | 4.3 ± 0.5 nM |  |  |  |  |  |
| O=C(Nc1c(F)c(F)c(N2CCOCC2)c(F)c1F)c1c(O)nn2ccccc12 [Compound 6, 2-Hydroxy-N-(2,3,5,6-tetrafluoro-4-morpholinophenyl)pyrazolo[1,5-a]pyridine-3-carboxamide] | 90.9 ± 13.1 nM |  |  | 438 µM (≈ 180 µg/mL) | 0.66 ± 0.08 | activity in cells (differentiation and apoptosis) (THP1 cells [3]; THP1, 1 μM): basically inactive |
| O=C(Nc1c(F)c(F)c(-c2ccc(C(F)(F)F)cc2)c(F)c1F)c1c(O)nn2ccccc12 [Compound 12, 2-Hydroxy-N-(2,3,5,6-tetrafluoro-4′-(trifluoromethyl)-[1,1′-biphenyl]-4-yl)pyrazolo[1,5-a]pyridine-3-carboxamide] | 71.8 ± 9.42 nM | 29.6 ± 3.2 nM | <LOD | < 6 µM |  | LogD^7.4 ± SD [2]: insoluble; Log D7.4 ± SD (supplement CSV) [2]: Insoluble |
| O=C(Nc1c(F)c(F)c(-c2ccccc2)c(F)c1F)c1c(O)nn2c(Cl)cccc12 [Compound 4, 7-Chloro-2-hydroxy-N-(2,3,5,6-tetrafluoro-[1,1′-biphenyl]-4-yl)pyrazolo[1,5-a]pyridine-3-carboxamide] | 3.4 ± 0.5 nM |  | <LOD |  |  | logD at 20 min [2]: 2.81 ± 0.13 |
| O=C(Nc1c(F)c(F)c(-c2ccc(F)cc2)c(F)c1F)c1c(O)nn2ccccc12 [Compound 10, 2-Hydroxy-N-(2,3,4′,5,6-pentafluoro-[1,1′-biphenyl]-4-yl)pyrazolo[1,5-a]pyridine-3-carboxamide] | 17.7 ± 3.3 nM | 8.32 ± 1.36 nM | <LOD | < 6 µM |  | LogD^7.4 ± SD [2]: insoluble; Log D7.4 ± SD (supplement CSV) [2]: Insoluble |
| CCCOc1cccc(-c2c(F)c(F)c(NC(=O)c3c(O)nn4ccccc34)c(F)c2F)c1 [Compound 17, 2-Hydroxy-N-(2,3,5,6-tetrafluoro-3′-propoxy-[1,1′-biphenyl]-4-yl)pyrazolo[1,5-a]pyridine-3-carboxamide] |  |  |  |  | 3.28 ± 0.12 | metabolites identified in sample C [4]: monohydroxylated and dealkylated metabolites; time after which parent compound was no longer present ([4]; rat-liver microsomes with regenerating system): ≤ 30 min; metabolic stability ([4]; rat-liver microsomes, 2 h): fast metabolism; also recorded: weaker in vitro stability; activity in cells (differentiation and apoptosis) (THP1 cells [3]; THP1, 0.1 μM): highly active; superiority to brequinar, apoptosis THP1 (THP1 cells [5]): 13 times; efficacy in comparison with brequinar, apoptosis U937 (U937 cells [6]): 19 times; cytoxicity Jurkat (effect ≥30% ± SD) (Jurkat cells): >100 µM; efficacy in comparison with brequinar, differentiation U937 (U937 cells [7]): 41 times |
| O=C(Nc1c(F)c(F)c(-c2ccccc2)c(F)c1F)c1c(O)nn2ccccc12 [Compound 1] |  |  |  |  |  | metabolites identified in sample C [4]: monohydroxylated, dihydroxylated, and methoxylated metabolites |
| O=C(Nc1c(F)c(F)c(-c2ccnc(C(F)(F)F)c2)c(F)c1F)c1c(O)nn2ccccc12 [Compound 9, 2-Hydroxy-N-(2,3,5,6-tetrafluoro-4-(2-(trifluoromethyl)pyridin-4-yl)phenyl)pyrazolo[1,5-a]pyridine-3-carboxamide] | 150 ± 15 nM |  |  | 20.2 µM (≈ 9.5 µg/mL) | 1.84 ± 0.06 | solubility in PBS relative to 1 [1]: 1.5 times; activity in cells (differentiation and apoptosis) (THP1 cells [3]; THP1, 1 μM): basically inactive |
| O=C(Nc1c(F)c(F)c(-c2cccc(O)c2)c(F)c1F)c1c(O)nn2ccccc12 [Compound 14, 2-Hydroxy-N-(2,3,5,6-tetrafluoro-3′-hydroxy-[1,1′-biphenyl]-4-yl)pyrazolo[1,5-a]pyridine-3-carboxamide] | 2.78 ± 0.32 nM | 2 ± 0.67 nM |  | 55.3 µM (≈ 23.1 µg/mL) | 1.82 ± 0.09 | solubility in PBS relative to 1 [1]: around 5 times; activity in cells (differentiation and apoptosis) (THP1 cells [3]; THP1, 1 μM): basically inactive |
